The structures appear in SMILES notation.

Data on 9 compounds can be found in US11578055B2, “Triazacyclododecansulfonamide (“TCD”)-based protein secretion inhibitors” (KEZAR LIFE SCIENCES, priority 2018, dated 2023).

Series [1] has as its system PD1 signal sequence plus 10 amino acids fused to Gaussia Luciferase (PD1-ss+10aa/Gaussia Luciferase). Put plainly: Dox Induced PD1-ss-Gluc Assay. It counts as cell-based. Conditions: 24 hr, Dox inducible, 293FRT/TO cells; read-out: 24 hr Dox Inducible PD1ssGluc 293FRT/TO: Mean IC50. The gist of the method:
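Stable Flp-In 293 T-REx line expressing the fusion under tetracycline-inducible control, plated the day before assay. Compound dilutions added with doxycycline and incubated at 37 °C, 5% CO2; unspecified stereocentres mean data refer to stereoisomer mixtures.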

Series [2] relates to full length TNFα (amino acids 1-233) fused to Gaussia Luciferase. Put plainly: Dox Induced TNFα-FL-Gluc Assay. Format: cell-based. Conditions: 24 hr, Dox inducible, 293FRT/TO cells; read-out: 24 hr Dox Inducible TNFaFLGluc 293FRT/TO: Mean IC50. Put shortly: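 Stable Flp-In 293 T-REx line expressing doxycycline-inducible full-length TNFα fused to Gaussia luciferase; cells plated the day before, then treated with compound dilutions in doxycycline-containing medium at 37° C, 5% CO2. Unspecified stereocentres mean stereoisomer mixtures were tested.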

In series [3] the test system is full length IL-2 (amino acids 1-153) fused to Gaussia Luciferase. In words: Dox Induced IL2-FL-Gluc Assay. It counts as cell-based. Conditions: 24 hr, Dox inducible, 293FRT/TO cells; read-out: 24 hr Dox Inducible IL2FLGluc 293FRT/TO: Mean IC50. Put shortly: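 Flp-In 293 T-REx stable line expressing full-length IL-2 (aa 1-153) with C-terminal Gaussia luciferase fusion under doxycycline-inducible control. Cells plated the day before; compound dilutions added in DMSO/media containing doxycycline, incubated at 37° C, 5% CO2.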

Series [4] deals with HER3 signal sequence plus 4 amino acids fused to Gaussia Luciferase (HER3-ss+4aa/Gaussia Luciferase). Put plainly: Dox Induced HER3-ss-Gluc Assay. Format: cell-based. Conditions: 24 hr, doxycycline induced, Flp-In 293 T-REx cells; read-out: 24 hr Dox Inducible Her3(ss + 4) Gluc 293FRT/TO: Mean 1050. From the text:
FIp-In 293 T-REx™ cells were transfected with pcDNA™5/FRT/TO plasmid inserted with cDNA encoding Gaussia Luciferase fused to the 3′ end of cDNA encoding HER3 signal sequence plus 4 amino acids (N-[…]-C) (SEQ ID NO: 2). Transfected cells were selected for resistance to the selectable markers Hygromycin and Blasticidin to create a stable cell line that contained the HER3-ss+4aa/Gaussia Luciferase cDNA insert whose expression was regulated under the T-REx™ system. The day before assay, cells were trypsinized and plated in 384-well tissue culture plates. The next day, compound dilutions in DMSO/media containing doxycycline were added to the wells and incubated at 37° C., 5% CO2.
For chemical structures that include one or more stereoisomers, but are illustrated without indicating stereochemistry, the assay data refers to a mixture of stereoisomers.

In series [5] the test system is multiple myeloma cell line NCl-H929. In words: H929 Cell Viability Assay. Conditions: Homo sapiens, NCI-H929, 48 h, H929, Celltiter-Glo. It counts as cell-based, human. The gist of the method:
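NCI-H929 myeloma cells in RPMI 1640 with 10% FBS were treated with compound dilutions for 48 h at 37 °C, and viability was then read by CellTiter-Glo luminescence. Compounds drawn without stereochemistry were tested as stereoisomer mixtures.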

Series [6] concerns multiple myeloma cell line U266B1. Put plainly: U266 Cell Viability Assay. It counts as cell-based, human. Conditions: Homo sapiens, U-266; 48 hr, U266, Celltiter-Glo. The gist of the method: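 U266B1 myeloma cells in RPMI 1640 with 10% FBS were treated with compound dilutions for 48 h at 37° C, 5% CO2. Viability was read as CellTiter-Glo luminescence. Data for structures drawn without stereochemistry refer to stereoisomer mixtures.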

Series [7] is described as follows: In Vitro Microsome Stability Assay (human). It counts as in vitro ADME. Conditions: human liver microsomes, 30 min w/ NADPH. The gist of the method:
(§1)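 Species liver microsomes in potassium phosphate buffer were preincubated at 37 °C for 3–5 min with test compound (added from 0.25 mM DMSO stock), then started with NADPH. Samples at 0 and 30 min were quenched with acetonitrile containing internal standard and analysed by LC-MS/MS; % remaining at 30 min used analyte/IS AUC ratios relative to t=0.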

Series [8] can be described thus: In Vitro Microsome Stability Assay (mouse). Conditions: mouse liver microsomes, 30 min w/ NADPH. Format: in vitro ADME. The gist of the method: as §1
The nature of series [9]: In Vitro Microsome Stability Assay (rat). It counts as in vitro ADME. Conditions: rat liver microsomes, 30 min w/ NADPH. Put shortly: as §1
A short description of series [10]: In Vitro Microsome Stability Assay (monkey). Format: in vitro ADME. Conditions: monkey liver microsomes, 30 min w/ NADPH. Put shortly:
as §1

As for `C[C@H]1CN(S(=O)(=O)c2ccc(N(C)C)cc2)CCCN(CC(C)(C)C)CCCN(S(=O)(=O)N2CCc3cc(Cl)ccc3C2)C1` [A107, 4-{[(3S)-5-[(6-chloro-1,2,3,4-tetrahydroisoquinolin-2-yl)sulfonyl]-9-(2,2-dimethylpropyl)-3-methyl-1,5,9-triazacyclododecan-1-yl]sulfonyl}-N,N-dimethylaniline], the IC50 in series [1] came out at 26.1 nM; in [2] it was 609 nM; in series [3], 73 nM; in series [4], 44.2 nM. Besides, the EC50 is 1180 nM in [5] and above 25000 nM in [6]. Moreover, in series [7], the “Liver Microsome Stability-% Left after 30 min w/ NADPH (%) Human” value (from here on “Liver Microsome Stability-% Left … (%) Human”) came out at 83.9%. The “Liver Microsome Stability-% Left after 30 min w/ NADPH (%) Mouse” value (“Liver Microsome Stability-% Left … (%) Mouse” below) in series [8] was 16.1%. Also, the “Liver Microsome Stability-% Left after 30 min w/ NADPH (%) Rat” value (shortened to “Liver Microsome Stability-% Left … (%) Rat”) in series [9] is listed as 19.3%. Besides, the “Liver Microsome Stability-% Left after 30 min w/ NADPH (%) Monkey” value (shortened to “Liver Microsome Stability-% Left … (%) Monkey”) in series [10] was found to be 25.0%.

Take `C[C@H]1CN(S(=O)(=O)c2ccc(N(C)C)cc2)CCCN(CCC2CCCC2)CCCN(S(=O)(=O)N2CCc3cc(Cl)ccc3C2)C1` [A120, 4-{[(3S)-5-[(6-chloro-1,2,3,4-tetrahydroisoquinolin-2-yl)sulfonyl]-9-(2-cyclopentylethyl)-3-methyl-1,5,9-triazacyclododecan-1-yl]sulfonyl}-N,N-dimethylaniline]: the IC50 in series [1] was 15.6 nM; in [2] it was 239 nM; in series [3] it was 27.3 nM; in [4] it was 31.4 nM. Further, the EC50 in series [5] is 672 nM; in series [6], above 25000 nM. The “Liver Microsome Stability-% Left … (%) Human” value in [7] is listed as 4.78%. Further, the “Liver Microsome Stability-% Left … (%) Mouse” value in series [8] was 19.2%. The “Liver Microsome Stability-% Left … (%) Rat” value in series [9] was found to be 28.5%. Besides, the “Liver Microsome Stability-% Left … (%) Monkey” value in series [10] amounted to 16.3%.

As to `C[C@H]1CN(S(=O)(=O)c2ccc(N(C)C)cc2)CCCN(CCC2CC2)CCCN(S(=O)(=O)N2CCc3cc(Cl)ccc3C2)C1` [A122, 4-{[(3S)-5-[(6-chloro-1,2,3,4-tetrahydroisoquinolin-2-yl)sulfonyl]-9-(2-cyclopropylethyl)-3-methyl-1,5,9-triazacyclododecan-1-yl]sulfonyl}-N,N-dimethylaniline], the IC50 came out at 51.9 nM in series [1], 885 nM in [2], 135 nM in series [3] and 111 nM in series [4]. Besides, the EC50 is 2420 nM in series [5] and above 25000 nM in [6]. For the same compound, the “Liver Microsome Stability-% Left … (%) Human” value in series [7] is on record as 0.38%. For the same compound, the “Liver Microsome Stability-% Left … (%) Mouse” value in [8] amounted to 36.4%. Also, in series [9], the “Liver Microsome Stability-% Left … (%) Rat” value is 0.17%. The “Liver Microsome Stability-% Left … (%) Monkey” value in series [10] was 0.15%.

`C[C@H]1CN(S(=O)(=O)c2ccc(N(C)C)cc2)CCCN(Cc2ccon2)CCCN(S(=O)(=O)N2CCc3cc(Cl)ccc3C2)C1` [A124, 4-{[(3S)-5-[(6-chloro-1,2,3,4-tetrahydroisoquinolin-2-yl)sulfonyl]-3-methyl-9-[(1,2-oxazol-3-yl)methyl]-1,5,9-triazacyclododecan-1-yl]sulfonyl}-N,N-dimethylaniline]: the IC50 in series [1] was 607 nM; in series [2] it was above 25000 nM; in series [3], 802 nM; in [4], 913 nM. Moreover, the EC50 in series [5] and in series [6] was above 25000 nM throughout. Also, the “Liver Microsome Stability-% Left … (%) Human” value in [7] stood at 18.9%. The “Liver Microsome Stability-% Left … (%) Mouse” value in series [8] was determined as 1.01%. Further, the “Liver Microsome Stability-% Left … (%) Rat” value in series [9] came out at 1.25%. Further, the “Liver Microsome Stability-% Left … (%) Monkey” value in series [10] is listed as 1.91%.

Take `C[C@H]1CN(S(=O)(=O)c2ccc(N(C)C)cc2)CCCN(CC2CCCCC2)CCCN(S(=O)(=O)N2CCc3c(Cl)cccc3C2)C1` [A181, 4-{[(3S)-5-[(5-chloro-1,2,3,4-tetrahydroisoquinolin-2-yl)sulfonyl]-9-(cyclohexylmethyl)-3-methyl-1,5,9-triazacyclododecan-1-yl]sulfonyl}-N,N-dimethylaniline]: the IC50 in [1] was found to be 38.7 nM; in series [2], 984 nM; in [3], 122 nM. Besides, the results for the EC50 in series [5] and in series [6] were 1480 nM and above 25000 nM, respectively. Moreover, the “Liver Microsome Stability-% Left … (%) Human” value in [7] is listed as 23.3%. Also, the “Liver Microsome Stability-% Left … (%) Mouse” value in series [8] is given as 17.1%. Besides, the “Liver Microsome Stability-% Left … (%) Rat” value in [9] worked out at 22.0%. Also, the “Liver Microsome Stability-% Left … (%) Monkey” value in series [10] stood at 27.9%.

In the case of `C[C@H]1CN(S(=O)(=O)c2ccc(N(C)C)cc2)CCCNCCCN(S(=O)(=O)N2CCc3cc(Cl)ccc3C2)C1` [A183, 4-{[(3S)-5-[(6-chloro-1,2,3,4-tetrahydroisoquinolin-2-yl)sulfonyl]-3-methyl-1,5,9-triazacyclododecan-1-yl]sulfonyl}-N,N-dimethylaniline], the IC50 in series [1] was determined as 1440 nM; in series [3] it was 2520 nM; in series [4], 2150 nM. The values for the EC50 in [5] and in series [6] were 6120 nM and above 25000 nM, respectively. For the same compound, the “Liver Microsome Stability-% Left … (%) Human” value in [7] was found to be 10.1%. For the same compound, the “Liver Microsome Stability-% Left … (%) Mouse” value in series [8] is reported as 7.39%. The “Liver Microsome Stability-% Left … (%) Rat” value in series [9] stood at 3.17%. Further, the “Liver Microsome Stability-% Left … (%) Monkey” value in [10] is listed as 0.75%.

On to `COc1cc(F)cc(N2CCN(S(=O)(=O)N3CCCN(CC4CCCCC4)CCCN(S(=O)(=O)c4ccc(N(C)C)cc4)C[C@H](C)C3)C[C@H]2C)c1` [A196], for which the IC50 is 31 nM in [1], 1470 nM in series [2], 105 nM in series [3] and 78.2 nM in [4]. The EC50 in series [5] and in series [6] was above 25000 nM throughout.

Consider `C[C@@H]1CN(CC2CCCCC2)C[C@H](C)CN(S(=O)(=O)c2ccc(N(C)C)cc2)C[C@H](C)CN(S(=O)(=O)N2CCc3cc(Cl)ccc3C2)C1` [B16, 4-{[(3S,7R,11S)-5-[(6-chloro-1,2,3,4-tetrahydroisoquinolin-2-yl]sulfonyl]-9-(cyclohexylmethyl)-3,7,11-trimethyl-1,5,9-triazacyclododecan-1-yl]sulfonyl}-N,N-dimethylaniline], for which the IC50 in series [1] was found to be 449 nM; in [2] it was 13900 nM; in series [3], 826 nM. Besides, the EC50 in [5] and in series [6] was above 25000 nM each time. The “Liver Microsome Stability-% Left … (%) Human” value in series [7] is reported as 55.2%. The “Liver Microsome Stability-% Left … (%) Mouse” value in [8] is on record as 58.4%. Besides, the “Liver Microsome Stability-% Left … (%) Rat” value in series [9] came out at 72.3%. For the same compound, the “Liver Microsome Stability-% Left … (%) Monkey” value in [10] is listed as 44.7%.

As to `C[C@H]1CN(S(=O)(=O)c2ccc(N(C)C)cc2)CCCCN(S(=O)(=O)N2CCc3cc(Cl)ccc3C2)C1` [B21], the IC50 is 3950 nM in series [1], above 25000 nM in series [2] and above 25000 nM in series [3]. Besides, the 50% effective concentration (EC50) in [5] and in [6] was above 25000 nM throughout. Besides, the “Liver Microsome Stability-% Left … (%) Human” value in series [7] was 0.17%. For the same compound, the “Liver Microsome Stability-% Left … (%) Mouse” value in series [8] worked out at 0.16%. In addition, in series [9], the “Liver Microsome Stability-% Left … (%) Rat” value came to 0.06%. Besides, the “Liver Microsome Stability-% Left … (%) Monkey” value in [10] is listed as 0.03%.
